Assay results taken from US20180117000A1, “ENERGY METABOLIC ACTIVATING AGENT FOR MUSCLE CELLS” (ORYZA OIL & FAT CHEMICAL CO., LTD., priority 2015, published 2018).
“Also recorded” adds a separate entry of the source.

Experiments:
PGC-1α = assay: Evaluation of the PGC-1α-expression promoting effect: PGC-1α mRNA by RT-PCR in C2C12; type: cell-based, Mouse; conditions: Compounds at 1 μM or 10 μM, C2C12 myoblast cells, cultured one week, GAPDH endogenous control, vs DMSO control, FIG. 3
Experimental: Mouse-muscle myoblast-cell lines C2C12 (cultured in DMEM FCS10%) were seeded in 24 well plates for determining the mRNA expression (1×10^4 cells/ml) and then were cultured for 24 hours. After 24 hours, the black-ginger extract (10 μg/mL) or the separated fractions (Compounds 1-8) were added to the culture media (DMEM FCS 1%) for differentiation induction until the concentration became 1 μM or 10 μM (i.e. until the concentration of the sample dissolved in each DMSO (dimethyl sulfoxide) became 0.1% (v/v) regarding the culture media). Then, the black-ginger extract and the separated fractions were cultured for one week. For control, the DMSO was added to the culture media in concentration of 0.1% (v/v). After being cultured for one week, the cells were collected, and the RNA was extracted. Regarding the collected RNA, by using RT-PCR (reverse-transcription polymerase-chain reaction), the expressed mRNA amount of the PGC-1α was identified. At that time, as an endogenous-control, GAPDH (Glyceraldehyde 3-phosphate dehydrogenase) was used.

[1] = system: sugar transporter (GLUT4); assay: Evaluation of sugar-transporter (GLUT4) gene-expression promotion: GLUT4 mRNA by RT-PCR in C2C12; type: cell-based, Mouse; conditions: Compounds at 1 μM or 10 μM, C2C12 myoblast cells, cultured one week, GAPDH endogenous control, vs DMSO control, FIG. 2
Experimental: Mouse-muscle myoblast-cell lines C2C12 (cultured in DMEM FCS10%) were seeded in 24 well plates for determining the mRNA expression (1×10^4 cells/ml) and then were cultured for 24 hours. […] Then, the black-ginger extract and the separated fractions were cultured for one week. For control, the DMSO was added to the culture media in concentration of 0.1% (v/v). After being cultured for one week, the cells were collected, and the RNA was extracted. Regarding the collected RNA, by using RT-PCR (reverse-transcription polymerase chain-reaction), the expressed mRNA amount of the sugar transporter (GLUT4) was identified. At that time, as an endogenous-control, GAPDH (Glyceraldehyde 3-phosphate dehydrogenase) was used.

| Compound | mRNA expression of the PGC-1α (PGC-1α) | mRNA expression of the sugar transporter (GLUT4) [1] |
| --- | --- | --- |
| COc1cc(O)c2c(=O)c(OC)c(-c3ccc(OC)c(OC)c3)oc2c1 [Compound 4, retusine] | lower activity | – |
| COc1cc(O)c2c(=O)cc(-c3ccccc3)oc2c1 [Compound 2, Techtochrysin] | Significant increases; also recorded: stronger activity | Significant expressed-promotion increases |
| COc1ccc(-c2oc3cc(OC)cc(O)c3c(=O)c2OC)cc1 [Compound 3, 3,7,4′-Trimethylkaempferol] | – | Significant expressed-promotion increases |
| COc1cc(OC)c2c(=O)cc(-c3ccccc3)oc2c1 [Compound 8, 5,7-dimethoxyflavone] | Significant increases; also recorded: stronger activity | Significant expressed-promotion increases |
